Tested on: normal human melanocytes (NHM)
Assay: Measurement of reactive oxygen species (ROS) generated by an H2O2 stress in cultured normal human melanocytes
Format: cell-based
Settings: NHM pretreated 12 h/18 h at 37° C. with compound; 250 μM H2O2; fluorescence after 15 minutes; FIG. 1
Method: 1-A-1. Protocol for Measuring the Reactive Oxygen Species (ROS) Generated by an H2O2 Stress in Cultured Normal Human Melanocytes (NHM): The normal human melanocytes (NHMs) were inoculated at DO at the density of 4×10^4 cells/cm^2. At D1, the culture medium was replaced with the 10 μM solution of 6-carboxy-2',7'-dichlorodihydrofluorescein diacetate, di[acetoxymethyl ester] in PBS (H2DCFDA, C2938, Molecular Probes). After 20 minutes, the H2DCFDA solution was replaced with the culture medium. The NHMs were left for 30 minutes before adding the H2O2 solution (250 μM). The fluorescence was measured after 15 minutes in a fluoroscan (excitation: 485 nm, emission: 538 nm). The compounds studied were used depending on their properties (concentration, preincubation time). N-Acetylcysteine ([…]-Sigma) was used as a reference molecule. The melanocytes were pretreated, 12 h/18 h at 37° C., with the compound studied in the culture medium, before being brought into contact for 20 minutes with H2DCFDA (10 μM in PBS). […] The fluorescence was measured after 15 minutes in a fluoroscan (excitation: 485 nm, emission: 538 nm). The results represent the crude fluorescence data, from which the autofluorescence values of “blank” cells, expressed in fluorescence units (fu), obtained during a representative experiment, have been deducted.

CCOc1ccc2c(c1)C(C)=CC(C)(C)N2 [ethoxyquine, 6-ethoxy-2,2,4-trimethyl-1H-quinoline]
ROS induced by H2O2 (H2DCFDA fluorescence): decrease of the reactive oxygen species
